# Results reported in US20230346678A1, “TOPICAL COMPOSITIONS CONTAINING VITAMIN C” (priority 2022, published 2023).
# Assay: Oxygen radical absorbance capacity (ORAC) assay
# Format: biochemical
# Protocol: The combined anti-oxidant effects of combinations of ascorbic acid with various other known anti-oxidants was tested using the oxygen radical absorbance capacity (ORAC) assay according to the method described by Ou B, Hampsch Woodill M, Prior R. L. Development and validation of an improved oxygen radical absorbance capacity assay using fluorescein as the fluorescent probe. J Agric Food Chem. 2001, 49:4619 (using a slightly different ex/em wavelength readout and a narrower range of Trolox standards). This assay measures the ability of anti-oxidant “chain breakers” to inhibit the decline in disodium fluorescein (FL) fluorescence that is induced by the peroxyl radical generator, 2′,2′-Azobis (2-amidinopropane) dihydrochloride (AAPH). Distilled water was used as the negative control. Trolox (6-hydroxy-2,5,7,8-tetramethylchroman-2-carboxylic acid, a water-soluble analog of vitamin E sold by Hoffman-LaRoche having antioxidant properties) was used as the positive control.
# The final ORAC values were calculated from the regression equation of net areas under the FL decay curve using a formula where Area Under the Curve (AUC)=1+(Point 1+Point 2+Point 3+ . . . +Point 15)/Point 1. The Trolox standards were then plotted as micromoles over AUC. The samples were solved using their AUC yielding the values in micromole (μmol) Trolox equivalent (TE) per ml. Applied BioSystems Cytofluor 4000 fluorometer & software was used for quantification. ORAC values of the test materials were expressed in μmoles TE/ml (TE=Trolox Equivalents).
# All ingredients were stored at room temperature and then diluted with distilled water into aqueous stock solutions for testing. Further dilutions were made in distilled water within 24 h from testing.
# [1] = second test run (second Table 3)
Compound,"ORAC (first test run, positive control)","ORAC (second test run, positive control)",ORAC (first test run (first Table 3)),ORAC [1]
"Cc1c(C)c2c(c(C)c1O)CCC(C)(C(=O)O)O2 (centres unmarked) [Trolox, 6-hydroxy-2,5,7,8-tetramethylchroman-2-carboxylic acid]",3940 µmol/g,4368 µmol/g,,
"O=C1O[C@H]([C@@H](O)CO)C(O)=C1O [10% ascorbic acid, ascorbic acid]",,,751 μmoles TE/ml,838 μmoles TE/ml
"O=C(O[C@@H]1Cc2c(O)cc(O)cc2O[C@@H]1c1cc(O)c(O)c(O)c1)c1cc(O)c(O)c(O)c1 [0.1% EGCG, epigallocatechin gallate]",,,7 μmoles TE/ml,
"O=C1O[C@H]([C@@H](O)CO)C([O-])=C1OP(=O)([O-])[O-].[Na+].[Na+].[Na+] [0.5% sodium ascorbyl phosphate, sodium ascorbyl phosphate]",,,10 μmoles TE/ml,
"Cn1c(=O)c2c(ncn2C)n(C)c1=O [2% caffeine, caffeine]",,,10 μmoles TE/ml,0 μmoles TE/ml
"CCOC1=C(O)C(=O)O[C@@H]1[C@@H](O)CO [0.5% Ethyl L-Ascorbic Acid, Ethyl L-Ascorbic Acid]",,,13 μmoles TE/ml,7 μmoles TE/ml
"COc1cc(CCC(=O)CC(=O)CCc2ccc(O)c(OC)c2)ccc1O [0.5% Tetrahydrodiferuloyl-methane, Tetrahydrodiferuloyl-methane]",,,4 μmoles TE/ml,
